Reference: patent US20100280024A1, “RENIN INHIBITORS” (priority 2007, published 2010)
Where a name gives a salt, the structure may show the parent alone.

Key:
Renin [1] = target: T1, Renin (Homo sapiens, UniProt P00797); assay: Renin inhibition in human plasma (IC50); assay type: biochemical; set-up: from tissue; host or cells: human plasma
T1 sequence (P00797 67-406): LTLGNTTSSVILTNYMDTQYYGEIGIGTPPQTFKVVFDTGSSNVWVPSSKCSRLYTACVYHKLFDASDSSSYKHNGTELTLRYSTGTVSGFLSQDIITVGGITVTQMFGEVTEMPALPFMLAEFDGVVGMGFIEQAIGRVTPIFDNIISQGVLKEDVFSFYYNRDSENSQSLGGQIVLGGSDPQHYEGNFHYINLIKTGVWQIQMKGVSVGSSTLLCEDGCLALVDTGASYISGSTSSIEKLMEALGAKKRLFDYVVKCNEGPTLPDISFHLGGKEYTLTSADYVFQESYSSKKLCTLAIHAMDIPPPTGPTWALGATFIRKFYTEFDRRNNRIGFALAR
From the text: Following table represents measured IC50 values of the selected compounds for its Renin inhibition in human plasma.

Renin [2] = target: T1, Renin; assay: In-vitro renin inhibition assay (modified Cayman renin inhibitor screening assay, fluorescence); assay type: biochemical; set-up: purchased Cayman 10006270; details: 37° C., 30 mins; for inhibition at 0.1 µM: read-out: Renin inhibition (percent inhibition of renin activity) at 0.1 μM; for inhibition at 1 µM: read-out: Renin inhibition (percent inhibition of renin activity) at 1 μM
Protocol: In-Vitro Renin Inhibition Assay
The enzymatic in vitro assay was performed in 96 well polypropylene plate (Nunc), using a modified Renin inhibitor screening assay protocol (Cayman, cat no: 10006270). The reaction system comprised assay buffer containing 50 mM Tris-HCL, pH=8.0 & 100 mM sodium chloride, human recombinant renin (1:20 diluted with fixed activity), synthetic renin substrates (9.5 μM) and different concentrations of renin inhibitors in DMSO in a total reaction system of 100 μl. The entire incubation mixture were incubated at 37° C. for 30 mins and the fluorescence was read in kinetic mode using excitation wavelengths of 335-345 nm and emission wavelengths of 485-510 nm. Enzyme inhibition was determined by percent inhibition of renin activity.

SMILES	IC50 (Renin [1]) [nM]	inhibition at 0.1 µM (Renin [2]; compound concentration 0.1 μM) [%]	inhibition at 1 µM (Renin [2]; compound concentration 1 μM) [%]	Renin inhibition (percent inhibition of renin activity) at 0.1 μM (Renin [2]; compound concentration 0.1 μM)	Renin inhibition (percent inhibition of renin activity) at 1 μM (Renin [2]; compound concentration 1 μM)
Cc1cc(Cl)c(OCCOc2ccc(CC(CN)C(=O)N3CCCCC3)cc2)c(Cl)c1 (centres unmarked) [Example 12, 3-Amino-2-{4-[2-(2,6-dichloro-4-methyl-phenoxy)-ethoxy]-benzyl}-1-piperidin-1-yl-propan-1-one]	70.2	77	90.7		
Cc1cc(Cl)c(OCCOc2ccc(CC(CN)C(=O)N3CCCc4cc(C(F)(F)F)ccc43)cc2)c(Cl)c1.Cl (centres unmarked) [Example 15A, 3-Amino-2-{4-[2-(2,6-dichloro-4-methyl-phenoxy)-ethoxy]-benzyl}-1-(6-trifluoromethyl-3,4-dihydro-2H -quinolin-1-yl)-propan-1-one hydrochloride]	7.85			80.00	88.0
COCCCOc1ccc2c(c1)CCCN2C(=O)C(CN)Cc1ccc(OCCOc2c(Cl)cc(C)cc2Cl)cc1 (centres unmarked) [Example 24, 3-Amino-2-{4-[2-(2,6-dichloro-4-methyl-phenoxy)-ethoxy]-benzyl}-1-[6-(3-methoxy-propoxy)-3,4-dihydro-2H-quinolin-1-yl]-propan-1-one]	25.4	90.7	93.2		
COCC1CCCN(C(=O)C(CN)Cc2ccc(OCCOc3c(Cl)cc(C)cc3Cl)cc2)C1 (centres unmarked) [Example 26, 2-Aminomethyl-3-{4-[2-(2,6-dichloro-4-methyl-phenoxy)-ethoxy]-phenyl}-1-(3-methoxymethyl-piperidin-1-yl)-propan-1-one hydrochloride]	27.8	92.8	93.9		
Cc1cc(Cl)c(OCCOc2ccc(CC(CN)C(=O)N3CCCc4cc(OC(F)(F)F)ccc43)cc2)c(Cl)c1 (centres unmarked) [Example 27, 3-Amino-2-{4-[2-(2,6-dichloro-4-methyl-phenoxy)-ethoxy]-benzyl}-1-(6-trifluoromethoxy-3,4-dihydro-2H-quinolin-1-yl)-propan-1-one hydrochloride]	0.921	100	99.2		
NCC(Cc1ccc(OCCOc2c(Cl)cccc2Cl)cc1)C(=O)N1CCCc2cc(C(F)(F)F)ccc21 (centres unmarked) [Example 31, 3-Amino-2-{4-[2-(2,6-dichloro-phenoxy)-ethoxy]-benzyl}-1-(6-trifluoromethyl-3,4-dihydro-2H-quinolin-1-yl)-propan-1-one hydrochloride]	28.7	94.1	102		
NCC(Cc1ccc(OCCOc2c(Cl)cccc2Cl)cc1)C(=O)N1CCCc2cc(OC(F)(F)F)ccc21 (centres unmarked) [Example 32, 3-Amino-2-{4-[2-(2,6-dichloro-phenoxy)-ethoxy]-benzyl}-1-(6-trifluoromethoxy-3,4-dihydro-2H-quinolin-1-yl)-propan-1-one hydrochloride]	0.829	100			
Cc1cc(Cl)c(OCCOc2ccc(CC(CN)C(=O)N3CCCc4cc(C(F)(F)F)ccc43)cn2)c(Cl)c1 (centres unmarked) [Example 41, 3-Amino-2-{6-[2-(2,6-dichloro-4-methyl-phenoxy)-ethoxy]-pyridin-3-ylmethyl}-1-(6-trifluoromethyl-3,4-dihydro-2H-quinolin-1-yl)-propan-1-one]		80.1	98.6		
Cc1cc(Cl)c(OCCOc2ccc(CC(CN)C(=O)N3CCCCC3)cn2)c(Cl)c1 (centres unmarked) [Example 42, 2-Aminomethyl-3-{6-[2-(2,6-dichloro-4-methyl-phenoxy)-ethoxy]-pyridin-3-yl}-1-piperidin-1-yl-propan-1-one]		71	82.5		
Cc1cc(Cl)c(OCCOc2ccc(CC(CN)C(=O)N3CCCc4ccccc43)cn2)c(Cl)c1 (centres unmarked) [Example 43, 2-Aminomethyl-3-{6-[2-(2,6-dichloro-4-methyl-phenoxy)-ethoxy]-pyridin-3-yl}-1-(3,4-dihydro-2H-quinolin-1-yl)-propan-1-one]			64.2		
Cc1cc(Cl)c(OCCOc2ccc(CC(CN)C(=O)N3CCCc4cc(F)ccc43)cn2)c(Cl)c1 (centres unmarked) [Example 44, 3-Amino-2-{6-[2-(2,6-dichloro-4-methyl-phenoxy)-ethoxy]-pyridin-3-ylmethyl}-1-(6-fluoro-3,4-dihydro-2H-quinolin-1-yl)-propan-1-one hydrochloride]		63.1	96.3		
Cc1cc(Cl)c(OCCCOc2ccc(CC(CN)C(=O)N3CCCc4ccccc43)cc2)c(Cl)c1 (centres unmarked) [Example 45, 2-Aminomethyl-3-{4-[3-(2,6-dichloro-4-methyl-phenoxy)-propoxy]-phenyl}-1-(3,4-dihydro-2H-quinolin-1-yl)-propan-1-one]		18.7	97.1		
COc1ccccc1COCCCOc1ccc(CC(CN)C(=O)N2CCCc3cc(C(F)(F)F)ccc32)cc1 (centres unmarked) [Example 47, 3-Amino-2-{4-[3-(2-methoxy-benzyloxy)-propoxy]-benzyl}-1-(6-trifluoromethyl-3,4-dihydro-2H-quinolin-1-yl)-propan-1-one]		43.1			
COc1cc(CC(CN)C(=O)N2CCCc3ccccc32)ccc1OCCOc1c(Cl)cc(C)cc1Cl (centres unmarked) [Example 48, 3-Amino-2-{4-[2-(2,6-dichloro-4-methyl-phenoxy)-ethoxy]-3-methoxy-benzyl}-1-(3,4-dihydro-2H-quinolin-1-yl)-propan-1-one hydrochloride]			58.5		
CC(C)(C)c1ccc2c(c1)CCCN2C(=O)C(CN)Cc1ccc(OCCOc2c(Cl)cccc2Cl)cc1 (centres unmarked) [Example 53, 3-Amino-1-(6-tert-butyl-3,4-dihydro-2H-quinolin-1-yl)-2-{4-[2-(2,6-dichloro-phenoxy)-ethoxy]-benzyl}-propan-1-one hydrochloride]		93.1			
